From patent US10842793B2, “Inhibitors of the unconventional secretion of fibroblast growth factor 2 (FGF2) by tumor cells and uses thereof” (Universität Heidelberg, priority 2016, dated 2020)
“Also recorded” adds a separate entry of the source.

How the values were obtained:
[1] = molecular target: T1, GST-NΔ173 Tec (auto-phosphorylation) (Homo sapiens, UniProt P42680); test: In vitro Tec kinase auto-phosphorylation; format: biochemical; details: 50 μM compound; for effect on NΔ173 Tec auto-phosphorylation in the presence of STAP1: STAP1 present; for inhibition of Tec auto-phosphorylation in the absence of a substrate: no FGF2, FIGS. 7B and 7E
T1 construct: made in house; host or cells: SF9 insect cells (baculovirus)
T1 sequence (P42680 174-631, stated change not applied): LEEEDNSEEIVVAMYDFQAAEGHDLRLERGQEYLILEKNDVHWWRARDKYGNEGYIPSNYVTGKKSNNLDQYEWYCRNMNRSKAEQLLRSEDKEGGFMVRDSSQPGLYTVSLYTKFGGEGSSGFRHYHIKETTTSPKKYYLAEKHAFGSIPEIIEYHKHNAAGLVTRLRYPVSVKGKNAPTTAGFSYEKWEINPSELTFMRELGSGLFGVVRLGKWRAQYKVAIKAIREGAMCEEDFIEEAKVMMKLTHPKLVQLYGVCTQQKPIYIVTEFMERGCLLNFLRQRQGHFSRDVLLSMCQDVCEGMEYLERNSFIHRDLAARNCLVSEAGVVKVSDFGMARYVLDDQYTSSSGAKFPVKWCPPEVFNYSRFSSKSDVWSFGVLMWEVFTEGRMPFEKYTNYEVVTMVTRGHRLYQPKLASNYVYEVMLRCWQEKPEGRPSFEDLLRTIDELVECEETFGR
Description: (§1) FGF2 tyrosine phosphorylation and Tec kinase auto-phosphorylation were reconstituted with purified components based on a Western analysis using anti-phosphotyrosine antibodies directed against an FGF2-derived phosphopeptide. In vitro phosphorylation experiments were conducted in the absence (1% DMSO mock control) and presence of the small molecule inhibitors (#6, #14, #21; 50 μM in 1% DMSO) and control compounds (#18, #19; 50 μM in 1% DMSO) introduced in FIGS. 4 and 5. Fluorescent secondary antibodies were used to detect antigens employing the LI-COR Odyssey imaging platform. M=PageRuler Prestained Protein Ladder. For details, see Experimental Procedures.
FGF2 and STAP1 tyrosine phosphorylation as well as Tec kinase auto-phosphorylation were analyzed as described in the legend to FIG. 6 and in Experimental Procedures. In vitro phosphorylation experiments were conducted in the absence (1% DMSO mock control) and presence of the small molecule inhibitors (#6, #14, #21; 50 μM in 1% DMSO) and control compounds (#18, #19; 50 μM in 1% DMSO) introduced in FIGS. 4 and 5. A Western analysis was conducted using anti-phosphotyrosine antibodies (anti-pY-FGF2 for FGF2 and Tec as well as anti-pY-4G10 for STAP1). M=PageRuler Prestained Protein Ladder: 140, 115, 80, 65, 50, 40, 30, 25, 15, 10 kDa. Fluorescent secondary antibodies were used to detect and quantify antigens using the LI-COR Odyssey imaging platform. In panels D, E and F, following normalization based upon background signals detected in the absence of Tec kinase or ATP, the average of the signals detected under mock conditions was defined as 100% activity. Standard deviations are shown. A one-tailed and unpaired T-test was conducted to assess statistical significance (* p<0.05, ** p<0.01, *** p<0.001, **** p<0.0001). “NS” indicates absence of significant differences.
A Tec kinase in vitro phosphorylation assay was established to test the inhibitory potential and selectivity of the small molecule inhibitors reported in this study (FIGS. 6 and 7). Tyrosine phosphorylation of FGF2 and STAP1, another established substrate of Tec kinase, was tested in a final volume of 100 μl (60 mM Hepes pH 7.5, 3 mM MgCl2, 20 μM ATP, 3 μM Sodium orthovanadate, 1.2 mM DTT, 50 ng/μl PEG 20000, 0.05% w/v Tween 20, 0.001% BSA). GST-NΔ173Tec (60 nM) was incubated in the absence (1% DMSO mock control) or presence of each compound (50 μM in 1% DMSO). Where indicated, reactions contained 250 nM of either FGF2 or 250 nM STAP1 (Hölzel Diagnostika, # GWB-P0486E-100). Following incubation at 30° C. for 45 minutes (corresponding to the midpoint of linear product formation), the reaction was terminated using SDS sample buffer and boiling for 4 minutes at 95° C. […] Phosphorylation levels of GST-NΔ173 Tec (auto-phosphorylation), FGF2 and STAP1 were quantified by a Western analysis using polyclonal anti-phosphotyrosine antibodies raised against a FGF2-derived synthetic peptide containing a phosphorylated tyrosine residue (ANRpYLAMKED; SEQ ID NO: 1). […] Phosphorylation levels of STAP1 were monitored using a monoclonal anti-phosphotyrosine antibody (clone 4G10®, #05-321, Merck Millipore). Appropriate fluorescent secondary antibodies (goat anti-rabbit IgG conjugated with Alexa Fluor® 680, # A-21076, Life Technologies; goat anti-mouse IgG conjugated with Alexa Fluor® 680, # A-21057, Life Technologies) were used to quantify all antigens employing the LI-COR Odyssey infrared imaging platform. […]

[2] = molecular target: T2, Tec kinase mediated tyrosine phosphorylation of FGF2 (GST-NΔ173 Tec) (Homo sapiens, UniProt P42680); test: In vitro Tec kinase mediated tyrosine phosphorylation of FGF2; format: biochemical; details: 50 μM compound in 1% DMSO; FIG. 6C
T2 construct: made in house; host or cells: Tec: SF9 insect cells (baculovirus); FGF2: E. coli
T2 sequence (P42680 174-631, stated change not applied): as above
Description: as §1
(C) Quantification and statistical analysis of 5 independent experiments using the LI-COR Odyssey imaging platform. Following background normalization, the average of FGF2 tyrosine phosphorylation under mock conditions was defined as 100% activity. Standard deviations are shown. […]
FGF2 and STAP1 tyrosine phosphorylation as well as Tec kinase auto-phosphorylation were analyzed as described in the legend to FIG. 6 and in Experimental Procedures. […] Fluorescent secondary antibodies were used to detect and quantify antigens using the LI-COR Odyssey imaging platform. In panels D, E and F, following normalization based upon background signals detected in the absence of Tec kinase or ATP, the average of the signals detected under mock conditions was defined as 100% activity. […]
A Tec kinase in vitro phosphorylation assay was established to test the inhibitory potential and selectivity of the small molecule inhibitors reported in this study (FIGS. 6 and 7). […] Phosphorylation levels of GST-NΔ173 Tec (auto-phosphorylation), FGF2 and STAP1 were quantified by a Western analysis using polyclonal anti-phosphotyrosine antibodies raised against a FGF2-derived synthetic peptide containing a phosphorylated tyrosine residue (ANRpYLAMKED; SEQ ID NO: 1). […] Phosphorylation levels of STAP1 were monitored using a monoclonal anti-phosphotyrosine antibody (clone 4G10®, #05-321, Merck Millipore). […]

[3] = Observation of compound aggregates in cell culture media; format: physicochemical; details: 25 and 50 μM

| Structure (SMILES) | effect on NΔ173 Tec auto-phosphorylation in the presence of STAP1 [1] | inhibition of Tec auto-phosphorylation in the absence of a substrate [1] | inhibition at 50 µM [2] [%] | inhibition of FGF2 tyrosine phosphorylation [2] | solubility / aggregates of compound [3] |
| --- | --- | --- | --- | --- | --- |
| COC(=O)c1c(C)[nH]c(C(=O)OCc2cc(=O)n3c(C)cccc3n2)c1C [compound #6] | neither auto-phosphorylation of NΔ173 Tec nor tyrosine phosphorylation of STAP1 is affected | particularly evident | ~75 | – | – |
| CC(=O)c1c(C)[nH]c(C(=O)OCc2cc(=O)n3cc(Br)ccc3n2)c1C [compound #14] | neither auto-phosphorylation of NΔ173 Tec nor tyrosine phosphorylation of STAP1 is affected | – | – | almost quantitative inhibition | – |
| CC(=O)c1c(C)[nH]c(C(=O)CSc2nc3cc(Cl)cnc3[nH]2)c1C [compound #21] | neither auto-phosphorylation of NΔ173 Tec nor tyrosine phosphorylation of STAP1 is affected | particularly evident | – | almost quantitative inhibition | aggregates of compound #21 were increasingly observable at concentrations of 25 and 50 μM; also recorded: solubility issues |
